According to patent US20230365933A1, “COMPOSITIONS AND METHODS FOR INCREASING STEM CELL FUNCTION” (SOCIETE DES PRODUITS NESTLE S.A., priority 2020, published 2023):
Entries after “also recorded” stand apart in the source; their conditions may differ.

How the values were obtained:
[1] = tested on: murine HSCs (LKS CD150+CD48−); assay: Mitochondrial membrane potential by TMRM staining and flow cytometry in cultured mHSCs; type: cell-based, mouse; conditions: compared to Basal condition; NR 500 uM, Vit B12 (MC) 100 uM; day 3 of culture
Description: Flow cytometry analysis was performed on freshly isolated bone marrow (BM) from C57BI6 mice. BM was extracted from crushed femora and tibia. Cell suspension was filtered through a 70 μm cell strainer and erythroid cells were eliminated by incubation with red blood cell lysis buffer (eBioscences). Isolation and stains were performed in ice-cold PBS 1 mM EDTA. Lineage positive cells were then removed with a magnetic lineage depletion kit (BD biosciences). Cell suspensions were then stained with specific antibodies for the stem cell compartment and sorted by FACS (BD FACS Aria III) into 1.5 ml Eppendorf tubes.
The following antibodies were used in this study: rat mAbs against cKit (2B8), Sca1 (D7), CD150 (TC-15-12F12.2), CD48 (HM48-1). The antibodies were purchased from Biolegend, eBiosciences and BD. A mixture of biotinylated mAbs against CD3, CD11b, CD45R/B220, Ly-6G, Ly-6C and TER-119 was used as lineage marker (“lineage cocktail”) and was purchased from BD. DAPI or propidium iodine (PI) staining was used for live/dead cell discrimination.
Murine HSCs were sorted into 1.5 ml Eppendorf tubes and were cultured in Stemline II (SIGMA) supplemented with 100 ng/ml SCF (R&D) and 2 ng/ml Flt3 (R&D). This was defined as the basal condition. Different concentrations as indicated of NR and Vit B12 (MC) were added in specific wells. NR was supplemented every 24 hours.
Mouse HSCs already in culture were incubated at 37° C. for 1 hour with 200 nM tetramethylrhodamine methyl ester (TMRM; Invitrogen) and 100 nM Mitotracker green. Cells were then washed with FACS buffer and analysed by flow cytometry on a BD LSR II.
Freshly FACS sorted mHSCs (LKS CD150+CD48−) were cultured in basal media (Stemline+SCF+FLT3L) supplemented with UroA, NR and MC in specific wells (as indicated). Cells were harvested at day 3 and stained with tetramethylrhodamine methyl ester (TMRM; to measure mitochondria membrane potential) and Mitotracker (to measure mitochondrial mass), and analysed by flow cytometry.

human HSCs = conditions: culture media supplemented with nicotinamide riboside, primary and secondary recipient humanised mice; cited from earlier work

## NC(=O)c1ccc[n+]([C@@H]2O[C@H](CO)[C@@H](O)[C@H]2O)c1 [NR, Nicotinamide riboside]
[1]
  TMRM fluorescent intensity (Mean Fluorescence Intensity, MFI): significantly decreased; also recorded: decreases
  proportion of cells in the TMRM low gate: significantly increased; also recorded: increases
Human HSCs
  levels of engraftment: significantly higher levels of engraftment
  long-term blood production: capable of sustaining long-term blood production

## C/C1=C2/[N-][C@H]([C@H](CC(N)=O)[C@@]2(C)CCC(=O)NC[C@@H](C)OP(=O)([O-])O[C@H]2[C@@H](O)[C@@H](n3cnc4cc(C)c(C)cc43)O[C@@H]2CO)[C@]2(C)N=C(/C(C)=C3N=C(/C=C4N=C1[C@@H](CCC(N)=O)C\4(C)C)[C@@H](CCC(N)=O)[C@]\3(C)CC(N)=O)[C@@H](CCC(N)=O)[C@]2(C)CC(N)=O.[CH3-].[Co] [MC, methylcobalamine]
[1]
  TMRM fluorescent intensity (Mean Fluorescence Intensity, MFI): significantly decreased; also recorded: decreases
  proportion of cells in the TMRM low gate: significantly increased; also recorded: increases
